In general, IC50 refers to the concentration that inhibits the measured activity by half. What is called IC90 is the point of the concentration-response curve where the effect stands at 90%.

SMILES strings stand for the structures. A value given as a limit tells only on which side of the number the result lay.

This passage reports IC50 and IC90 results from ChEMBL document CHEMBL4483862, “Open-source discovery of chemical leads for next-generation chemoprotective antimalarials” (2018).

For this test, the system named is Plasmodium berghei. As to the kind of experiment: Luciferase/luciferin-expressing antifolate-resistant parasites were used to infect a culture of HepG2 cells that were pre-incubated with compounds. Infected hepatocytes emit light due to the luciferase reaction. Assay results are presented as the percent inhibition of light emission compared to control. […]. The class given is functional. To be noted: sporozoite; for IC50: read-out: LUCIFERASE INFECTION ASSAY - IC50; for IC90: read-out: LUCIFERASE INFECTION ASSAY - IC90.

Regarding `Cn1c(N)c(C(=O)COC(=O)C2(c3ccccc3F)CCCC2)c(=O)n(C)c1=O`, the concentration for half-maximal inhibition (IC50) was above 10 µM and the IC90 is above 10 µM.
In the case of `CN(C)c1ccc(/C=C/c2ccc3c4ccccc4ccc3[n+]2-c2ccccc2)cc1`, the 50% inhibitory concentration (IC50) came to 1.07 µM and the concentration for an effect of 90% (IC90) came out at 1.23 µM.
`C=CCn1c(SCC(=O)Nc2nnc(-c3ccccc3)o2)nc2cc(Cl)ccc2c1=O`: the half-maximal inhibitory concentration (IC50) was above 10 µM and the IC90 is above 10 µM.
As to `N#CC(C(=O)COC(=O)c1nc(-c2ccccc2)n(-c2ccccc2)n1)=C1Nc2ccccc2N1`, the 50% inhibitory concentration (IC50) was above 10 µM and the 90% effect concentration (IC90) is above 10 µM.
As to `Cc1ccc(-c2cs/c(=N\c3ccc(C)c(C)c3)n2/N=C/c2ccc(O)cc2O)cc1`, the half-maximal inhibitory concentration (IC50) is above 10 µM and the concentration for an effect of 90% (IC90) is above 10 µM.
For `CCOC(=O)c1c(NC(=O)C(C)OC(=O)c2ccccc2Sc2ccccc2C#N)sc2c1CCCC2` (configuration not stated), the IC50 is above 10 µM and the concentration for an effect of 90% (IC90) was above 10 µM.
For the compound `O=C(N/N=C/c1ccc([N+](=O)[O-])o1)c1ccc(CN2C(=O)c3cccc4cccc2c34)cc1`, the IC50 was above 10 µM and the IC90 was above 10 µM.
On to `CCCCc1ccc(NC(=O)/C(C#N)=C/c2ccccc2Cl)cc1`, for which the IC50 was above 10 µM and the 90% effect concentration (IC90) was above 10 µM.
As for `CCCCOc1ccc(/C=N/Nc2ccc([N+](=O)[O-])cc2)cc1`, the IC50 was above 10 µM and the IC90 was above 10 µM.
`Oc1c(C(c2ccc(Cl)cc2Cl)N2CCOCC2)ccc2cccnc12` (configuration not stated): the IC50 came out at 4.36 µM and the 90% effect concentration (IC90) is 8.77 µM.
For `CCn1c(-c2ccccc2)c(C(=O)COC(=O)c2c(NC(C)=O)sc3c2CCCC3)c2ccccc21`, the IC50 was above 10 µM and the IC90 was above 10 µM.
For the compound `CCOC(=O)c1c(C)[nH]c(C(=O)C(C)Sc2nnc(-c3ccccc3)c(-c3ccccc3)n2)c1C` (configuration not stated), the IC50 is above 10 µM and the 90% effect concentration (IC90) is above 10 µM.
As to `COc1ccccc1NC(=O)c1ccc(NC(=O)Cn2ncc(Cl)c(Cl)c2=O)cc1`, the IC50 was found to be 3.41 µM and the IC90 is 4.54 µM.
The corresponding values for `COc1ccc(S(=O)(=O)N(CC(=O)c2cc(C)n(-c3ccc(Cl)cc3)c2C)Cc2ccccc2)cc1` are above 10 µM and above 10 µM.
The like results for `O=C(Nc1nc(-c2ccco2)c(-c2ccco2)s1)c1cnc(Cl)c(Cl)c1` were, in that order, above 10 µM and above 10 µM.
On to `N=C1C(c2nc3ccccc3[nH]2)C(=O)CN1NC(=O)Cn1nnc(-c2cccc(C(F)(F)F)c2)n1` (configuration not stated), for which the IC50 was above 10 µM and the IC90 is above 10 µM.
As to `O=C(Nc1nc2c(s1)CCCC2)c1cc(F)c(F)c(F)c1F`, the half-maximal inhibitory concentration (IC50) is 0.081 µM and the 90% effect concentration (IC90) turned out to be 0.624 µM.
The like results for `Cc1nn(-c2cccc(C(F)(F)F)c2)c2sc(C(=O)NC(=S)N(C)C3CCCCC3)cc12` were, in that order, 1.09 µM and 1.27 µM.
For the compound `O=C(COC(=O)c1ccccc1Nc1cccc(C(F)(F)F)c1)c1ccc(C2CCCCC2)cc1`, the IC50 was above 10 µM and the IC90 was above 10 µM.
With `CCOc1cc(C(=O)N/N=C2/C(=O)N(C(C)C)c3ccccc32)cc(OCC)c1OCC`, the IC50 is above 10 µM and the 90% effect concentration (IC90) was above 10 µM.
Turning to `Cn1c(CC(=O)NNC(=O)/C=C/c2cccc(C(F)(F)F)c2)nc2ccccc21`, the 50% inhibitory concentration (IC50) is 3.4 µM and the concentration for an effect of 90% (IC90) was 3.99 µM.
As to `O=S(=O)(c1ccc(NC(=S)N/N=C2\CC(c3ccccc3)Oc3ccccc32)cc1)N1CCOCC1` (configuration not stated), the IC50 worked out at 8.98 µM and the IC90 was above 10 µM.
Take `Cc1cc(C(=O)COC(=O)c2ccccc2OCC(=O)Nc2cccc(C(F)(F)F)c2)c(C)n1CC1CCCO1` (configuration not stated): the IC50 is above 10 µM and the IC90 is above 10 µM.
As for `CC1C/C(=C\c2ccco2)c2nc3ccccc3c(C(=O)OCC(=O)N3CC(=O)Nc4ccccc43)c2C1` (configuration not stated), the half-maximal inhibitory concentration (IC50) was above 10 µM and the concentration for an effect of 90% (IC90) was above 10 µM.
For `O=C(/C=C/C1=C(N2CCOCC2)C(=C\c2ccc(Cl)cc2)/CC1)C(F)(F)F`, the half-maximal inhibitory concentration (IC50) was above 10 µM and the IC90 was above 10 µM.
With `C=CCN(c1cccc(C(F)(F)F)c1)S(=O)(=O)c1cc(C(=O)Nc2ccc3c(c2)CCC3)ccc1Cl`, the IC50 is above 10 µM and the IC90 is above 10 µM.
Take `CCOc1ccc(-n2c(SCC(=O)N(C)Cc3ccccc3)nc3ccccc32)cc1`: the half-inhibitory concentration (IC50) was above 10 µM and the concentration for an effect of 90% (IC90) was above 10 µM.
As for `COc1ccc(-c2ccc(-c3nc4c(c(=O)[nH]c(=O)n4CC(C)C)n3CC(C)C)o2)c([N+](=O)[O-])c1`, the IC50 is above 10 µM and the IC90 was above 10 µM.
`COc1ccc(-n2c(SCc3nc4ccccc4s3)nc3ccccc32)cc1`: the IC50 was above 10 µM and the IC90 is above 10 µM.
With `CCCCn1c(SCc2cc(=O)oc3cc(C)c(C(C)C)cc23)nc2cc(S(N)(=O)=O)ccc21`, the IC50 was above 10 µM and the IC90 was above 10 µM.
As to `COCC(C)n1c(C)cc(C(=O)CSc2ncnc3sc(C)c(C)c23)c1C` (configuration not stated), the concentration for half-maximal inhibition (IC50) was above 10 µM and the concentration for an effect of 90% (IC90) is above 10 µM.
Consider `C=CCn1c(SC(C(=O)c2c[nH]c3ccccc23)c2ccccc2)nc2ccccc2c1=O` (configuration not stated), for which the IC50 was 8.28 µM and the IC90 is above 10 µM.
As to `CCN(CC)CCn1c(NC(=O)c2cc3c(C)nn(-c4ccc(Cl)cc4)c3s2)nc2ccccc21`, the IC50 was above 10 µM and the concentration for an effect of 90% (IC90) was above 10 µM.
Consider `O=C(c1ccccc1)C(Sc1nnc(Cc2cccs2)n1CCc1ccccc1)c1ccccc1` (configuration not stated), for which the IC50 was above 10 µM and the IC90 was above 10 µM.
On to `C=C(C)C(=O)Oc1ccc(Oc2c(F)c(F)c(-c3c(F)c(F)c(Oc4ccc(OC(=O)C(=C)C)cc4)c(F)c3F)c(F)c2F)cc1`, for which the half-maximal inhibitory concentration (IC50) was above 10 µM and the concentration for an effect of 90% (IC90) is above 10 µM.
On to `Cc1cc(Nc2nc3ccccc3nc2N2CCN(/C=C/c3ccccc3)CC2)n(-c2ccccc2)n1`, for which the half-maximal inhibitory concentration (IC50) was above 10 µM and the 90% effect concentration (IC90) was above 10 µM.
Take `CC(C)(C)c1cnnn1-c1ccc(C(=O)/C=C/c2ccccc2)cc1`: the IC50 was above 10 µM and the concentration for an effect of 90% (IC90) is above 10 µM.
As to `O=C(CSc1nnc(Cc2cccs2)n1C1CCCCC1)c1c[nH]c2ccccc12`, the IC50 was above 10 µM and the IC90 is above 10 µM.
As to `Brc1ccc(C2C(c3nc4ccccc4[nH]3)=C(c3ccccc3)N=C(c3ccccc3)C2c2nc3ccccc3[nH]2)cc1` (configuration not stated), the half-maximal inhibitory concentration (IC50) is above 10 µM and the IC90 is above 10 µM.
On to `O=C(OCC(=O)N1N=C(c2ccc(Cl)cc2)CC1c1ccco1)c1[nH]nc2ccccc12` (configuration not stated), for which the IC50 was above 10 µM and the IC90 was above 10 µM.
For `O=C(c1cn(-c2ccccc2)nc1-c1cc2ccccc2oc1=O)n1nnc2ccccc21`, the IC50 was determined as 3.27 µM and the IC90 came to 3.36 µM.
Turning to `O=C(CC(NC(=O)c1ccccc1Cl)c1ccccc1)Oc1ccc2c(c1)OCO2` (configuration not stated), the IC50 was above 10 µM and the IC90 was above 10 µM.
On to `O=C(/C(=C/c1ccc(N2CCOCC2)cc1)c1nc2ccccc2[nH]1)c1cccc(Cl)c1`, for which the 50% inhibitory concentration (IC50) was above 10 µM and the IC90 is above 10 µM.
In the case of `CCOc1ccc(C(=O)c2c(-c3ccccc3)c3c4n(c(COc5cc(C)ccc5C(C)C)nn24)CCCC3)cc1`, the IC50 stood at 8.64 µM and the IC90 was above 10 µM.
The corresponding values for `CCC(C)(C)c1ccc(OCC(=O)Nc2cccc(-c3nc(C)sc3C(=O)Nc3cc(Cl)ccc3Cl)c2)c(C(C)(C)CC)c1` are above 10 µM and above 10 µM.
The like results for `Cc1cc(OCc2nc3ccc(Cl)cc3[nH]2)c(C(C)C)cc1Cl` were, in that order, above 10 µM and above 10 µM.
